Assay results as given in patent US8637665B2, “Pyrrolo[2,L-C][L,4]benzodiazepine-benzothiazole or benzoxazole conjugates linked through piperazine moiety and process for the preparation thereof” (priority 2010, dated 2014).
Read-outs that look alike come from different tables or passages of the source.

How the values were obtained:
[1] = system: duplex-form calf thymus DNA (CT-DNA); assay: Thermal denaturation studies with calf thymus DNA (DNA binding affinity); conditions: [PBD]:[DNA] 1:5, CT-DNA 100 μM, ligand 20 μM, pH 7.00
Description: Compounds have been subjected to thermal denaturation studies with duplex-form calf thymus DNA (CT-DNA) using an modification of a reported procedure (Newman, M. S. Carcinog-compr. Surv. 1976,1, 203; (b) Hecht, S. S.; Loy, M.; Hoffman, Carcinog-compr. Surv. 1976, 1, 325). Working solutions in aqueous buffer (10 mM NaH2PO4/Na2HPO4, 1 mM Na2EDTA, pH 7.00+0.01) containing CT-DNA (100 μm in phosphate) and the PBD (20 μm) have been prepared by addition of concentrated PBD solutions in DMSO to obtain a fixed [PBD]/[DNA] molar ratio of 1:5. The DNA-PBD solutions have been incubated at 37° C. for 0 and 18 h prior to analysis. Samples have been monitored at 260 using a Beckman DU-800 spectrophotometer fitted with high performance temperature controller, and heated at 1° C. min^−1 in the 40-110° C. range. DNA helix→coil transition temperatures (Tm) have been obtained from the maxima in the d(A260)/dT derivative plots. Drug-induced alterations in DNA melting behavior are given by: ΔTm=Tm(DNA+PBD)−Tm(DNA alone), where the Tm value for the PBD-free CT-DNA is 69.1±0.01.
The DNA binding activity for these novel C8-linked benzothiazole, benzoxazole-PBD hybrids has been examined by thermal denaturation studies using calf thymus (CT) DNA. […] The data for the compounds 9a-n is included in Table 7 for comparison.

[2] = system: A 2780 (ovary cancer) cell line; assay: cells; type: cell-based; conditions: for GI50: mean of three determinations; for CC50: read-out: LC50 A 2780, 50% cell death
Description: (§1) Anticancer activity: In vitro biological activity studies were carried out at the Advance Center for Treatment Research & Education in Cancer (ACTREC), Navi Mumbai.
(§2) The compounds were evaluated for in vitro anticancer activity against eight tumour cells lines derived from seven cancer types (non-small-cell lung, colon, oral, cervix, ovarian, prostate, and breast cancer) as shown in Table 2. For each compound, dose response curves for each cell line were measured at a minimum of five concentrations at 10 fold dilutions. A protocol of 48 h continuous drug exposure was used and a sulforhodamine B (SRB) protein assay was used to estimate cell viability or growth. The concentration causing 50% cell growth inhibition (GI50) and 50% cell death (LC50, −50% growth) compared with the control was calculated. Compounds 9a-9l have been evaluated for their in vitro cytotoxicity in eight cell lines from seven human cancer types of lung (Hop-62, A-549) colon (COLO-205) cervix (Si—Ha), ovary (A-2780), prostate (PC3) breast (MCF7), oral (KB). The results are expressed as percent of cell growth determined relative to that of untreated control cells (Table-8 and table-9).

[3] = system: A 549 (lung cancer) cell line; assay: cells; type: cell-based; conditions: for GI50: mean of three determinations
Description: as §1, §2

[4] = system: Colo 205 (colon cancer) cell line; assay: cells; type: cell-based; conditions: for GI50: mean of three determinations; for CC50: read-out: LC50 Colo 205
Description: as §1, §2

[5] = system: HOP 62 (lung cancer) cell line; assay: cells; type: cell-based; conditions: for GI50: mean of three determinations; for LC50: read-out: LC50 HOP 62, 50% cell death
Description: as §1, §2

[6] = system: MCF 7 (breast cancer) cell line; assay: cells; type: cell-based; conditions: for GI50: read-out: GI50 MCF 7; for LC50 (concentration causing 50% cell death): read-out: LC50 MCF 7, 50% cell death
Description: as §1, §2

[7] = system: PC 3 (prostate cancer) cell line; assay: cells; type: cell-based; conditions: for GI50: read-out: GI50 PC 3; for CC50: read-out: LC50 Pc 3, 50% cell death
Description: as §1, §2

[8] = system: SiHa (cervix cancer) cell line; assay: cells; type: cell-based; conditions: for GI50: mean of three determinations; for LC50 (concentration causing 50% cell death): read-out: LC50 SiHa, 50% cell death
Description: as §1, §2

[9] = system: KB (oral cancer) cell line; assay: In vitro anticancer activity, SRB assay, KB; type: cell-based, human; conditions: for GI50: mean of three determinations; for CC50: read-out: LC50 KB, 50% cell death
Description: as §1, §2

[10] = system: eight tumour cells lines derived from seven cancer types; assay: In vitro anticancer activity, SRB assay, panel of eight cell lines; type: cell-based; conditions: Homo sapiens, range over the eight cell lines per compound; read-out: GI50 range against cancer cell lines
Description: as §1, §2

[11] = Homo sapiens, A2780, 48 h, read-out: GI50 A 2780, 48 h drug exposure, SRB
[12] = Homo sapiens, A2780, 48 h, 48 h drug exposure, SRB
[13] = Homo sapiens, A549, 48 h, read-out: GI50 A 549, 48 h drug exposure, SRB
[14] = Homo sapiens, A549, 48 h, read-out: LC50 A 549, 50% cell death, 48 h drug exposure, SRB
[15] = Homo sapiens, COLO 205, 48 h, read-out: GI50 Colo 205, 48 h drug exposure, SRB
[16] = Homo sapiens, HOP-62, 48 h, read-out: GI50 HOP 62, 48 h drug exposure, SRB
[17] = Homo sapiens, HOP-62, 48 h, 48 h drug exposure, SRB
[18] = Homo sapiens, MCF7, 48 h, 48 h drug exposure, SRB
[19] = Homo sapiens, 48 h, 48 h drug exposure, SRB
[20] = Homo sapiens, SiHa, 48 h, read-out: GI50 SiHa, 48 h drug exposure, SRB
[21] = Homo sapiens, SiHa, 48 h, 48 h drug exposure, SRB
[22] = Homo sapiens, 48 h, read-out: GI50 KB, 48 h drug exposure, SRB
[23] = read-out: GI50 HOP 62, 48 h drug exposure, SRB
[24] = 48 h drug exposure, SRB, mean of three determinations

SMILES	ΔTm after incubation at 37° C. for 0 h [1]	ΔTm after incubation at 37° C. for 18 h [1]	GI50 [2, 11]	CC50 [2, 12]	GI50 [3, 13]	CC50 [3, 14]	GI50 [4, 15]	CC50 ([4]; Homo sapiens, COLO 205, 48 h)	GI50 [5, 16]	LC50 [5, 17]	GI50 ([6]; Homo sapiens, MCF7, 48 h)	LC50 (concentration causing 50% cell death) [6, 18]	GI50 ([7]; Homo sapiens, 48 h)	CC50 [7, 19]	GI50 [8, 20]	LC50 (concentration causing 50% cell death) [8, 21]	GI50 [9, 22]	CC50 [9, 19]	GI50 [10]	other results
COc1cc2c(cc1OCCCN1CCN(CCCOc3ccc(-c4nc5ccccc5s4)cc3)CC1)N=C[C@@H]1CCCN1C2=O [Compound 9a]	10.2 °C	10.8 °C	108 nM	23000 nM	130 nM	> 100000 nM	100 nM	> 100000 nM	100 nM	27000 nM	< 10 nM	1900 nM	120 nM	28000 nM	130 nM	27500 nM	120 nM	2400 nM	≤ 130 nM	
COc1cc2c(cc1OCCCN1CCN(CCCOc3ccc(-c4nc5ccc(F)cc5s4)cc3)CC1)N=C[C@@H]1CCCN1C2=O [Compound 9c]	10.3 °C	10.7 °C	116 nM	2300 nM	< 10 nM	33000 nM	130 nM	> 100000 nM	110 nM	29000 nM	< 10 nM	170 nM	110 nM	2300 nM	130 nM	27000 nM	110 nM	26000 nM	≤ 130 nM	
COc1cc2c(cc1OCCCN1CCN(CCCOc3ccc(-c4nc5ccccc5o4)cc3)CC1)N=C[C@@H]1CCCN1C2=O [Compound 9i]	9.5 °C	9.7 °C	80 nM	2250 nM	< 10 nM	> 100000 nM	< 10 nM	> 100000 nM	110 nM	27000 nM	< 10 nM	150 nM	< 10 nM	230 nM	117 nM	28500 nM	< 10 nM	28000 nM	≤ 117 nM	
COc1cc(-c2nc3ccccc3o2)ccc1OCCCN1CCN(CCCOc2cc3c(cc2OC)C(=O)N2CCC[C@H]2C=N3)CC1 [Compound 9j]	10.1 °C	10.3 °C	< 10 nM	139 nM	< 10 nM	> 100000 nM	110 nM	> 100000 nM	< 10 nM	2300 nM	< 10 nM	< 10 nM	< 10 nM	2500 nM	< 10 nM	28000 nM	< 10 nM	200 nM	≤ 110 nM	
COc1cc2c(cc1OCCCCN1CCN(CCCCOc3ccc(-c4nc5ccc(F)cc5s4)cc3)CC1)N=C[C@@H]1CCCN1C2=O [Compound 9g, 7-Methoxy-8-[4-(4-{4-[4(6-fluoro-1,3-benzothiazol-2-yl)-phenoxy]butyl}piperazin-1-yl)butyl]oxy-(11aS)-1,2,3,11a-tetrahydro-5H-pyrrolo[2,1-c][1,4]benzodiazepin-5-one]	12.3 °C	12.6 °C	147 nM	2250 nM	< 10 nM	> 100000 nM	100 nM	> 100000 nM	160 nM	> 100000 nM	140 nM	2400 nM	160 nM	31000 nM	168 nM	311 nM	160 nM	> 100000 nM	≤ 168 nM	
COc1cc2c(cc1OCCCCN1CCN(CCCCOc3ccc(-c4nc5ccccc5s4)cc3)CC1)N=C[C@@H]1CCCN1C2=O [Compound 9l, 7-Methoxy-8-[4-(4-{4-[4(1,3-benzothiazol-2-yl)-phenoxy]butyl}piperazin-1-yl)butyl]oxy-(11aS)-1,2,3,11a-tetrahydro-5H-pyrrolo[2,1-c][1,4]benzodiazepin-5-one]	11.5 °C	11.8 °C		2100 nM				> 100000 nM				160 nM		2100 nM		28000 nM		2000 nM	≤ 125 nM	GI50 ([2]; read-out: GI50 A 2780, 48 h drug exposure, SRB): 99 nM; CC50 ([3]; human, 48 h): 30000 nM; GI50 ([3]; read-out: GI50 A 549, 48 h drug exposure, SRB): < 10 nM; GI50 ([4]; read-out: GI50 Colo 205, 48 h drug exposure, SRB): < 10 nM; CC50 ([5]; human, 48 h): 2500 nM; GI50 [5, 23]: 110 nM; GI50 [6, 24]: < 10 nM; GI50 [7, 24]: < 10 nM; GI50 ([8]; read-out: GI50 SiHa, 48 h drug exposure, SRB): 125 nM; GI50 ([9]; 48 h drug exposure, SRB, listed as 91, read-out: GI50 KB): 110 nM; GI50 ([9]; 48 h drug exposure, SRB, read-out: GI50 KB): 110 nM
COc1cc2c(cc1OCCCN1CCN(CCCOc3cccc(-c4nc5ccccc5o4)c3)CC1)N=C[C@@H]1CCCN1C2=O [Compound 9k, 7-Methoxy-8-[3-(4-{3-[3(1,3-benzoxazol-2-yl)-phenoxy]propyl}piperazin-1-yl)propyl]oxy-(11aS)-1,2,3,11a-tetrahydro-5H-pyrrolo[2,1-c][1,4]benzodiazepin-5-one]	9.7 °C	10.2 °C	86 nM	2160 nM	< 10 nM	> 100000 nM	170 nM	> 100000 nM		25000 nM	< 10 nM	2600 nM	< 10 nM	26000 nM	130 nM	27800 nM	110 nM		≤ 170 nM	GI50 [5, 23]: 10 nM
